In this assay the target is T1, CDK2/cyclinA (Homo sapiens, UniProt P24941).
T1 construct: C-terminal 6His-tagged human full length cdk2 (MW=35 kDa); 6His (C); made in house; host or cells: Sf21 insect cells (baculovirus)
As to the kind of experiment: CDK2 kinase assay (33P-ATP, Histone H1 substrate). As to conditions: 1 μM ATP, 5 μM Histon H1, 2 hours at room temperature. In kind it is biochemical. From the text:
CDK2/cyclinA (Accession number for CDK2; EMBL M68520, for cyclin A; EMBL X51688): C-terminal 6His-tagged human full length cdk2 (MW=35 kDa), and N-terminal GST-tagged human full length cyclin A (MW=75 kDa) were expressed individually with baculovirus system in Sf21 insect cells. Recombinant cdk2 protein was purified with Ni2+/NTA agarose and then activated using CAK and repurified by Q Sepharose and Ni2+/NTA agarose. Recombinant cyclin A was purified using glutathione-agarose. They were then mixed in vitro to form protein complex. Recombinant protein complex was measured to be 67% in purity with SDS-PAGE and Coomassie blue staining. Specific activity of purified enzyme was measured to be 158 U/mg, where one unit of cdk2/cyclinA activity is defined as 1 nmol phosphate incorporated into 0.1 mg/ml histone H1 per minute at 30° C. with a final ATP concentration of […]. Enzyme was stored at a concentration of 0.1 mg/ml in 50 mM Tris/HCl pH7.5, 150 mM NaCl, 0.1 mM EGTA, 0.03% Brij-35, 270 mM sucrose, 1 mM benzamidine, 0.2 mM PMSF, 0.1% 2-mercaptoethanol. Frozen solution.
Histon H1 (Substrate for CDK2): Histone H1 (Sigma cat#H4524), was purified as a lysine rich fraction from calf thymus with 93% purity (MW=21.5 kDa). Purified protein was stored at a concentration of 20 mg/ml=930 μM in distilled water.
[…] (0.5 nmol) and 5 μM Histon H1 were mixed in the reaction buffer (20 mM HEPES (pH 7.5), 10 mM MgCl2, 1 mM EGTA, 0.02% Brij 35, 0.02 mg/ml BSA, 0.1 mM Na3VO4, 2 mM DTT) with final concentration of 1 μM ATP and 1% DMSO. The reaction was incubated for 2 hours at room temperature and conversion rate of ATP is about 4.5%. An equal volume of 25% TCA was added to stop the reaction and precipitate the labeled peptides. Precipitated proteins were trapped onto glass fiber B filterplates and excess […] p33 ATP was washed off. The plates were allowed to air-dry prior to the addition of 30 uL/well of Packard Microscint 20. The amount of incorporated isotope was measured using a Perkin Elmer TopCount plate reader. Different concentrations of compounds were added to reaction to assess the activity of compounds to inhibit […]. IC50 was calculated using Prism software with sigmoidal dose-response curve fitting.
The following TABLE B lists compounds representative of the invention and their activity in the CDK2 assay. In this assay, the following grading was used: I≧10 μM, 10 μM>II>1 μM, 1 μM>III>0.1 μM, and IV≦0.1 μM for IC50.

As usually defined, the IC50 is the concentration that inhibits the measured activity by half. As for `CC(Sc1cnc(NC(=O)CCCCCCC(=O)Nc2ccccc2N)s1)c1ncc(C(C)(C)C)o1` (stereo not drawn) [Compound 20, N^1-(2-aminophenyl)-N^8-(5-(1-(5-tert-butyloxazol-2-yl)ethylthio)thiazol-2-yl)octanediamide], the IC50 was not above 0.1 µM.
`CC(C)(C)c1cnc(CSc2cnc(NC(=O)CCCCCCC(=O)Nc3ccc(N)cc3)s2)o1` [Compound 21, N^1-(4-aminophenyl)-N^8-(5-((5-tert-butyloxazol-2-yl)methylthio)thiazol-2-yl)octanediamide] yielded a half-inhibitory concentration (IC50) not above 0.1 µM.
The result for `CC(C)(C)c1cnc(CSc2cnc(NC(=O)CCCCCCC(=O)Nc3cccc(N)c3)s2)o1` [Compound 22, N^1-(3-aminophenyl)-N^8-(5-((5-tert-butyloxazol-2-yl)methylthio)thiazol-2-yl)octanediamide] reads not above 0.1 µM.
The result for `CC(C)(C)c1cnc(CSc2cnc(NC(=O)CCCCCCC(=O)Nc3ccc(F)cc3N)s2)o1` [Compound 23, N^1-(2-amino-4-fluorophenyl)-N^8-(5-((5-tert-butyloxa-zol-2-yl)methylthio)thiazol-2-yl)octanediamide] reads not above 0.1 µM; that for `Cc1ccc(NC(=O)CCCCCCC(=O)Nc2ncc(SCc3ncc(C(C)(C)C)o3)s2)c(N)c1` [Compound 26, N^1-(2-amino-4-methylphenyl)-N^8-(5-((5-tert-butyloxazol-2-yl)methylthio)thiazol-2-yl)octanediamide], not above 0.1 µM; that for `CC(C)(C)c1cnc(CSc2cnc(NC(=O)Nc3ccccc3N)s2)o1` [Compound 27, 1-(2-Aminophenyl)-3-(5-((5-tert-butyloxazol-2-yl)methyl-thio)thiazol-2-yl)urea], not above 0.1 µM.
In the case of `CC(C)(C)c1cnc(CSc2cnc(NC(=O)CCCCCCC(=O)Nc3ccccn3)s2)o1` [Compound 28, N^1-(5-((5-tert-butyloxazol-2-yl)methylthio)thiazol-2-yl)-N^8-(pyridin-2-yl)octanediamide], the IC50 was not above 0.1 µM.
To `CC(C)(C)c1cnc(CSc2cnc(NC(=O)CCCCCCC(=O)Nc3cccnc3)s2)o1` [Compound 29, N^1-(5-((5-tert-butyloxazol-2-yl)methylthio)thiazol-2-yl)-N^8-(pyridin-3-yl)octanediamide] belongs not above 0.1 µM; to `CC(C)(C)c1cnc(CSc2cnc(NC(=O)CCCCCCC(=O)Nc3ccncc3)s2)o1` [Compound 30, N^1-(5-((5-tert-butyloxazol-2-yl)methylthio)thiazol-2-yl)-N^8-(pyridin-4-yl)octanediamide], not above 0.1 µM; to `CONC(=O)CCCOc1ccc(CC(=O)Nc2ncc(SCc3ncc(C(C)(C)C)o3)s2)cc1` [Compound 31, 4-(4-(2-(5-((5-tert-butyloxazol-2-yl)methylthio)thiazol-2-ylamino)-2-oxoethyl)phenoxy)-N-methoxybutanamide], not above 0.1 µM.
To `CN(O)C(=O)CCCOc1ccc(CC(=O)Nc2ncc(SCc3ncc(C(C)(C)C)o3)s2)cc1` [Compound 32, 4-(4-(2-(5-((5-tert-butyloxazol-2-yl)methylthio)thiazol-2-ylamino)-2-oxoethyl)phenoxy)-N-hydroxy-N-methylbutanamide] belongs not above 0.1 µM.
With `CC(C)(C)c1cnc(CSc2cnc(NC(=O)Cc3ccc(OCCC(=O)Nc4ccccc4N)cc3)s2)o1` [Compound 33], the IC50 was not above 0.1 µM.
The compound `CC(C)(C)c1cnc(CSc2cnc(NC(=O)Cc3ccc(OCCCC(=O)Nc4ccccc4N)cc3)s2)o1` [Compound 34, N-(2-aminophenyl)-4-(4-(2-(5-((5-tert-butyloxazol-2-yl)methylthio)thiazol-2-ylamino)-2-oxoethyl)phenoxy)butanamide] displayed an IC50 not above 0.1 µM.
The compound `CC(C)(C)c1cnc(CSc2cnc(NC(=O)Cc3ccc(OCCCCC(=O)Nc4ccccc4N)cc3)s2)o1` [Compound 35, N-(2-aminophenyl)-5-(4-(2-(5-((5-tert-butyloxazol-2-yl)methylthio)thiazol-2-ylamino)-2-oxoethyl)phenoxy)pentanamide] came in with an IC50 not above 0.1 µM.
To `CC(C)(C)c1cnc(CSc2cnc(NC(=O)Cc3ccc(OCCCCCC(=O)Nc4ccccc4N)cc3)s2)o1` [Compound 36, N-(2-aminophenyl)-6-(4-(2-(5-((5-tert-butyloxazol-2-yl)methylthio)thiazol-2-ylamino)-2-oxoethyl)phenoxy)hexanamide] belongs not above 0.1 µM; to `CONC(=O)/C=C/c1ccc(C(=O)Nc2ncc(SCc3ncc(C(C)(C)C)o3)s2)cc1` [Compound 38, (E)-N-(5-((5-tert-butyloxazol-2-yl)methylthio)thiazol-2-yl)-4-(3-(methoxyamino)-3-oxoprop-1-enyl)benzamide], not above 0.1 µM.
The result for `CN(O)C(=O)/C=C/c1ccc(C(=O)Nc2ncc(SCc3ncc(C(C)(C)C)o3)s2)cc1` [Compound 39, (E)-N-(5-((5-tert-butyloxazol-2-yl)methylthio)thiazol-2-yl)-4-(3-(hydroxy(methyl)amino)-3-oxoprop-1-enyl)benzamide] reads 1 to 10 µM; that for `CC(C)(C)c1cnc(CSc2cnc(NC(=O)CCCCCCC(=O)n3nnc4ccccc43)s2)o1` [Compound 40, 8-(1H-benzo[d][1,2,3]triazol-1-yl)-N-(5-((5-tert-butyloxazol-2-yl)methylthio)thiazol-2-yl)-8-oxooctanamide], not above 0.1 µM.
Consider `CC(C)(C)c1cnc(CSc2cnc(NC(=O)CCCCCCC(=O)Nc3n[nH]c4ccccc34)s2)o1` [Compound 41], for which the IC50 is not above 0.1 µM.
For `CC(C)(C)c1cnc(CSc2cnc(NC(=O)CCCCCCC(=O)Nc3cn[nH]c3)s2)o1` [Compound 42, N^1-(5-((5-tert-butyloxazol-2-yl)methylthio)thiazol-2-yl)-N^8-(1H-pyrazol-4-yl)octanediamide], the IC50 is not above 0.1 µM.
In the case of `CC(C)(C)c1cnc(CSc2cnc(NC(=O)CCCCCCC(=O)n3ncc(-c4ccc(F)cc4)c3N)s2)o1` [Compound 44, 8-(5-amino-4-(4-fluorophenyl)-1H-pyrazol-1-yl)-N-(5-((5-tert-butyloxazol-2-yl)methylthio)thiazol-2-yl)-8-oxooctanamide], the half-maximal inhibitory concentration (IC50) is not above 0.1 µM.
To `CC(C)(C)c1cnc(CSc2cnc(NC(=O)CCCCCCC(=O)Nc3[nH]ncc3-c3ccc(F)cc3)s2)o1` [Compound 45] belongs not above 0.1 µM; to `CC(C)(C)c1cnc(CSc2cnc(NC(=O)CC3Nc4ccccc4NC3=O)s2)o1` (stereo not drawn) [Compound 46, N-(5-((5-tert-butyloxazol-2-yl)methylthio)thiazol-2-yl)-2-(3-oxo-1,2,3,4-tetrahydroquinoxalin-2-yl)acetamide], not above 0.1 µM; to `CC(C)(C)c1cnc(CSc2cnc(NC(=O)CCCCCCC(=O)Nc3nc4ccccc4[nH]3)s2)o1` [Compound 47], not above 0.1 µM.
To `CC(C)(C)c1cnc(CSc2cnc(NC(=O)CCCCCCC(=O)n3nc(N)c4ccccc43)s2)o1` [Compound 48] belongs not above 0.1 µM.
To `CC(C)(C)c1cnc(CSc2cnc(NC(=O)CCCCCCC(=O)Nc3c[nH]c4ccccc34)s2)o1` [Compound 50] belongs not above 0.1 µM; to `CN1OC(=O)CC1c1ccc(C(=O)Nc2ncc(SCc3ncc(C(C)(C)C)o3)s2)cc1` (stereo not drawn) [Compound 51, N-(5-((5-tert-butyloxazol-2-yl)methylthio)thiazol-2-yl)-4-(2-methyl-5-oxoisoxazolidin-3-yl)benzamide], not above 0.1 µM.
Regarding `CC(C)(C)c1cnc(CSc2cnc(NC(=O)CCCCCCC(=O)Nc3cc(-c4cccs4)n[nH]3)s2)o1` [Compound 52], the half-inhibitory concentration (IC50) was not above 0.1 µM.
To `CC(C)(C)c1cnc(CSc2cnc(NC(=O)Oc3ccc(OCCCC(=O)Nc4ccccc4N)cc3)s2)o1` [Compound 54, 4-(4-(2-Aminophenylamino)-4-oxobutoxy)phenyl 5-((5-tert-butyloxazol-2-yl)methylthio)thiazol-2-ylcarbamate] belongs not above 0.1 µM; to `CC(C)(C)c1cnc(CSc2cnc(NC(=O)Cc3cccc(OCCCC(=O)Nc4ccccc4N)c3)s2)o1` [Compound 56, N-(2-aminophenyl)-4-(3-(2-(5-((5-tert-butyloxazol-2-yl)methylthio)thiazol-2-ylamino)-2-oxoethyl)phenoxy)butanamide], not above 0.1 µM.

These data come from US8691820B2, “CDK inhibitors” (Curis, Inc., priority 2008, dated 2014).
